Results as given in the supplement of paper PMC10307832.

Key:
Assay in all cases: relative viability (nuclei count vs DMSO), 5 days (fraction); higher = more cells survive
[1] = compound: C1=CC2=C(C=C(C(=C2N=C1)O)N=NC3=CC4=C(C=C3)C=C(C=C4)S(=O)(=O)O)S(=O)(=O)O + COc1cccc2cc(-c3nc([C@H]4CC[C@H](C(=O)O)CC4)n4ncnc(N)c34)[nH]c12 [OSI-027] (partner 0.5 µM)
How it was run: (§1)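 Values are medians from duplicate plates. Each reflects relative viability, defined as the nuclei count of treated wells over that of vehicle wells. Lung cancer cell lines in 1536-well plates were pin-tool dosed one day after seeding with one drug alone or with a fixed anchor-drug dose plus five library-drug doses (not always all listed) in √10 steps, then fixed, stained and imaged at 4× after 5 days.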

[2] = compound: C1=CC2=C(C=C(C(=C2N=C1)O)N=NC3=CC4=C(C=C3)C=C(C=C4)S(=O)(=O)O)S(=O)(=O)O + CCNC(=O)c1noc(-c2cc(C(C)C)c(O)cc2O)c1-c1ccc(CN2CCOCC2)cc1 [Luminespib] (partner 0.01 µM)
How it was run: as §1

[3] = compound: C1=CC2=C(C=C(C(=C2N=C1)O)N=NC3=CC4=C(C=C3)C=C(C=C4)S(=O)(=O)O)S(=O)(=O)O + Cc1nc(Nc2ncc(C(=O)Nc3c(C)cccc3Cl)s2)cc(N2CCN(CCO)CC2)n1 [Dasatinib] (partner 0.075 µM)
How it was run: as §1

[4] = compound: C1=CC2=C(C=C(C(=C2N=C1)O)N=NC3=CC4=C(C=C3)C=C(C=C4)S(=O)(=O)O)S(=O)(=O)O + Cc1cc(Nc2cc(N3CCN(C)CC3)nc(Sc3ccc(NC(=O)C4CC4)cc3)n2)n[nH]1 [Tozasertib] (partner 0.1 µM)
How it was run: as §1

UMC-11
relative viability ([1]; first compound 0.08 µM): 0.492 | relative viability ([1]; first compound 0.253 µM): 0.435 | relative viability ([1]; first compound 0.8 µM): 0.458 | relative viability ([1]; first compound 2.53 µM): 0.47 | relative viability ([1]; first compound 8 µM): 0.485 | relative viability ([2]; first compound 0.08 µM): 1.14 | relative viability ([2]; first compound 0.253 µM): 1.04 | relative viability ([2]; first compound 0.8 µM): 0.862 | relative viability ([2]; first compound 2.53 µM): 0.992 | relative viability ([2]; first compound 8 µM): 1.02 | relative viability ([3]; first compound 0.08 µM): 0.493 | relative viability ([3]; first compound 0.253 µM): 0.454 | relative viability ([3]; first compound 0.8 µM): 0.456 | relative viability ([3]; first compound 2.53 µM): 0.439 | relative viability ([3]; first compound 8 µM): 0.441 | relative viability ([4]; first compound 0.08 µM): 0.187 | relative viability ([4]; first compound 0.253 µM): 0.193 | relative viability ([4]; first compound 0.8 µM): 0.212 | relative viability ([4]; first compound 2.53 µM): 0.205 | relative viability ([4]; first compound 8 µM): 0.179
